# Source: ChEMBL document CHEMBL3507680, “University of Dundee, Gates Library screen for HepG2 cell viability”
# Assay: Human HepG2 cell viability assay in 384 well format
# Format: toxicity, cell-based
# Parameters: dose 125 nL, time 70.5 hour; concentration not given beside the values
# Details: HepG2 cells, read-out: Inhibition
row,Compound,cytotoxicity at 70.5 h [%]
1,COCCN1C(=O)CO[C@H]2CN(Cc3c[nH]nc3-c3ccccc3)C[C@@H]21,-9.3
2,COc1ccc(CN2CC[C@H](NC(C)=O)[C@@H](O)CC2)c(OC)c1,-17.2
3,Cc1noc(C)c1-c1cncc(C2CCCN2Cc2ccncc2)n1 (centres undefined),-16.4
4,NCCn1nc(C2CCN(Cc3ccc(Cl)c(Cl)c3)C2)c2nccnc21 (centres undefined),-4.77
5,CNC(=O)C1(CCCc2ccncc2)CCCN1 (centres undefined),-7.77
6,CN(C)c1cncc(C2CCN(CCO)CC2)n1,-8.74
7,COc1cc(CN2CC[C@@]3(CCCO3)[C@@H](O)C2)ccc1F,-7.93
8,CN1CCN(C(=O)c2cncc(CC3CCCN(C)C3)c2)CC1 (centres undefined),24.9
9,Cc1noc(C)c1-c1cnc(CC2CCN(C(=O)c3cc[nH]n3)C2)cn1 (centres undefined),-12
10,Cc1cc(C(F)(F)F)c2c(C3CCN(S(=O)(=O)N(C)C)CC3)noc2n1,-9.87
11,CC(C)(C)C(=O)N1CCCC1c1nc(O)cc(-c2ccccn2)n1 (centres undefined),-8.73
12,O=C(CC1CCCC1)N1CCCC1c1nc(O)cc(-c2ccccn2)n1 (centres undefined),-1.16
13,Cc1oc(C(=O)Nc2ccccc2F)cc1S(N)(=O)=O,-10.9
14,CCN(CC(C)C#N)C(=O)CNc1ccc(F)c(C)c1 (centres undefined),0.826
15,Cc1cccc(C)c1NC(=O)c1cc(S(N)(=O)=O)c(C)o1,20.8
16,CCS(=O)(=O)CC(=O)Nc1cc(-c2cccc(F)c2F)n[nH]1,-9.86
17,O=c1n(CCNc2cccc3ccccc23)nc2ccccn12,4.9
18,O=C(c1ccoc1)N1CCC(O)(C(F)(F)F)CC1,-12.1
19,CCOCC(=O)N(C)Cc1nc(C(F)(F)F)cs1,20.5
20,CCN(CC(C)C#N)C(=O)CNc1ccc(C(N)=O)c(C)c1 (centres undefined),-1.05
21,COc1ccccc1OCCNS(=O)(=O)N1CCOCC1,-11.3
22,CC(C)c1nn(C)c(Cl)c1CNCCn1cccn1,8.25
23,CCOc1nnc(CN2CCN(CCOC)CC2)s1,16.4
24,COCCN1CCN(CC2CCCCO2)CC1 (centres undefined),38.7
25,COc1ccc(C(C)=O)cc1CN1CCn2cccc2C1C (centres undefined),-6.89
26,CC(=O)c1cccc(NC(=O)N(CC(F)F)C2CC2)c1,19.6

row,Compound,cytotoxicity at 70.5 h [%]
1,CCN(CC)S(=O)(=O)c1ccc(CNC(=O)N2CCCCCC2)cc1,-7.35
2,Cc1cccc(C)c1OCCCN1CCN(CC2CCCO2)CC1 (centres undefined),18.9
3,COc1ccc(C2(C(=O)NC3CCc4nccn4C3)CCCC2)cc1 (centres undefined),-3
4,CS(=O)(=O)C1(C(=O)NC2CCc3nccn3C2)CCCC1 (centres undefined),-4.12
5,Cc1cc(NC(=O)NCc2nccn2C)ccc1OC(C)C,-6.18
6,Cc1ccc(Br)cc1S(=O)(=O)NCCc1nnc[nH]1,11.5
7,COc1cc(C(=O)NS(=O)(=O)c2cc(Cl)sc2Cl)ccc1OC(F)F,-5.6
8,COc1ccc(C(=O)NS(=O)(=O)c2cc(Cl)sc2Cl)cc1OC(F)F,-3.93
9,COCCCOc1ccc(C(=O)N(C)CCC(C)C)cn1,20.8
10,Cc1cnn(CCNCc2c(C)nn(C)c2Cl)c1,-4.35
11,COC(=O)CNC(=O)CCc1cc(Cl)cs1,6.93
12,COC(=O)CNC(=O)CCc1cc(Br)cs1,-3.56
13,CCc1nc(CN(C)C(=O)c2ccc(OCCCOC)nc2)cs1,-7.45
14,CN(Cc1cnn(C)c1)C(=O)C(c1ccccc1)N1CCSCC1 (centres undefined),-9.84
15,COc1ccc(C(C)NCCC(N)=O)cc1F (centres undefined),1.06
16,O=C(NCc1nnc2n1CCC2)c1ccc(Br)s1,-5.66
17,COC(=O)c1ccoc1CN(C)CC(=O)NC1CC1,-5.08
18,COC(=O)c1ccoc1CN(C)CC(=O)NC1CCS(=O)(=O)C1 (centres undefined),3.53
19,CNC(=O)CN(C)C(=O)c1ccc(-c2nc(C)cs2)cc1,-5.78
20,CC(NS(N)(=O)=O)c1ccc(OCc2ccc(F)cc2)cc1 (centres undefined),-0.493
21,COc1ccc(N2CCC(NC(=O)c3sccc3C)CC2)cc1,18.3
22,CN1CCC(NC(=O)c2cc(Br)cc(Cl)c2O)C1=O (centres undefined),-1.22
23,CC(C)OCCN1CCC(Nc2ncc(Br)cn2)CC1,-7.14
24,CNC(=O)c1cc(NC(=O)Nc2cnn(CC(C)C)c2)ccc1F,-4.7
25,Cc1cccc(COc2ccc(C(C)NC(=O)CNC(N)=O)cc2)c1 (centres undefined),-0.269
26,O=C(C1CCCOC1)N1CCN(CC(F)(F)F)c2ccccc21 (centres undefined),-1.7

row,Compound,cytotoxicity at 70.5 h [%]
1,O=C(C1COCCO1)N1CCN(CC(F)(F)F)c2ccccc21 (centres undefined),-1.12
2,CN1CCC(NC(=O)c2cc(F)cc(Cl)c2O)C1=O (centres undefined),-2.94
3,COC(=O)CC1CCCCN1CC(=O)NCCc1ccc(F)cc1 (centres undefined),1.06
4,COC(=O)CC1CCCCN1CC(=O)Nc1ccc(F)cc1Cl (centres undefined),21.6
5,COC(=O)c1ccoc1CN(C1CC1)C1CCS(=O)(=O)C1 (centres undefined),-0.821
6,COC(=O)CC1CCCCN1CC(=O)Nc1cc(F)ccc1F (centres undefined),-4.9
7,CCCS(=O)(=O)NCc1ncc(C)c(OC)c1C,9.44
8,CC1CN(c2ncnc3sccc23)CCN1c1nccs1 (centres undefined),-0.696
9,CC1CCN(C(=O)CCN2Cc3ccccc3C[C@H]2C(N)=O)C1 (some centres undefined),-6.72
10,COC(=O)C1CN(Cc2ccn(-c3ccc(F)cc3)n2)CCO1 (centres undefined),5.92
11,CC(C)(C)c1noc(CCC(=O)N2CCNC(=O)C2)n1,7.96
12,COc1ccc2c(c1)CCCC2CC(=O)O (centres undefined),-19.3
13,Cc1cc(C(=O)N2CCNC(=O)C2)c(C)n1CC(F)(F)F,26.8
14,Cc1cc(CNc2cccc(C(=O)N(C)c3ccccc3)c2)no1,-0.804
15,O=C(Cc1cccs1)NCC1(O)CCSCC1,-3.88
16,CS(=O)(=O)CCCC(=O)Nc1cc(Cl)c(Cl)cn1,0.966
17,CS(=O)(=O)CCC(=O)Nc1cc(Cl)c(Cl)cn1,26.6
18,COCCCC(=O)Nc1cc(Cl)c(Cl)cn1,24.5
19,O=C(OC1CCC1)c1ncccc1OCC(F)(F)F,15.8
20,CS(=O)(=O)NC(=O)c1cnc2c(cnn2C2CCCC2)c1,-4.29
21,Cc1ccnc(C(NC(=O)c2oc(C)nc2C)C2CC2)n1 (centres undefined),-3.47
22,CN(C)CCCNC(=O)c1ccnc(OCc2ccccc2)c1,-1.38
23,CCn1cc(S(=O)(=O)NCC(OC)c2cccc(Cl)c2)cn1 (centres undefined),-6.64
24,O=C(OC1CCC1)c1ncccc1C(F)(F)F,-3.86
25,Cc1csc(CCNC(=O)C2CCOC2)n1 (centres undefined),-2.45
26,Cc1cnn(CCNCC(O)COc2cccc(C(F)(F)F)c2)c1 (centres undefined),0.0235

row,Compound,cytotoxicity at 70.5 h [%]
1,COc1ccc(CCNC(=O)C(C)Nc2cc(C)ccc2C)cc1 (centres undefined),-8.81
2,O=C(c1sccc1C1CC1)N1CCN(c2nccs2)CC1,6.38
3,CC(NC(=O)CNS(C)(=O)=O)c1ccccc1Oc1ccccc1 (centres undefined),-7.15
4,CCS(=O)(=O)CC(=O)NC(C)c1ccccc1Oc1ccccc1 (centres undefined),2.99
5,CC(C)(C)c1cnc(CN2CCC(CN3CCOCC3)CC2)o1,22.6
6,CC(C)(O)CN1CCN(C(=O)c2cccn2Cc2ccccc2)CC1,-6.76
7,CC(NC(=O)CSCC(N)=O)c1ccccc1Oc1ccccc1 (centres undefined),16.5
8,CN(C)c1ccccc1CN1CCC(N2CCCC2=O)CC1,17.8
9,Cc1cc(F)cc2c(N3CCS(=O)(=O)CC3)c(C#N)cnc12,0.465
10,COc1cc2c(cc1CNC(=O)Cc1cc(C)on1)OC(C)C2 (centres undefined),-8.66
11,CC(=O)Nc1ccc(CNc2cccc(OCCF)c2)cc1,-5.76
12,COCc1nc(CNc2cc(C)on2)cs1,-3.59
13,Cc1cc(NCc2csc(C)n2)no1,-4.29
14,CC(C)OCCC(=O)N1CCN(CC(O)c2ccccc2)CC1 (centres undefined),-1.62
15,O=C(c1ccc(-n2cccc2)c(F)c1)N1CCCN2CCCC2C1 (centres undefined),8.53
16,CCOc1cncc(N2CCOCC2)n1,-7.42
17,CCc1nc(CN2CC(C(=O)OC)O[C@H](C)C2)cs1 (some centres undefined),-8.81
18,CCc1nc2c(s1)C(N(C)C(=O)c1cc[nH]n1)CCC2 (centres undefined),-10.2
19,CC(O)CN1CCN(C(=O)c2cccn2Cc2cccnc2)CC1 (centres undefined),-11.4
20,Cc1ncsc1C(=O)NCCNC(=O)OC(C)(C)C,-2.69
21,O=C(Nc1ccc2c(ccn2CCN2CCOCC2)c1)c1ccncc1,-1.62
22,CC(C)C1CCCN1CC(=O)NCc1ccc(OCC(N)=O)cc1 (centres undefined),2.47
23,NCC(=O)N1CCCC(c2cncc(Nc3ncccn3)n2)C1 (centres undefined),-13.9
24,c1cncc(-c2nccc(CN3CCCC3)n2)c1,3.79
25,Cc1ccc([C@]2(O)CC[C@H]3CN(Cc4cccc(Cl)c4Cl)C[C@H]32)nc1,22.9
26,CCN(CC)C(=O)c1cc(C2CCCN2C)ccn1 (centres undefined),4.19
